Measured values published in patent US20230002397A1, “SMALL MOLECULE DEGRADERS OF HELIOS AND METODS OF USE” (DANA-FARBER CANCER INSTITUTE, INC., priority 2019, published 2023).

Target: T1, IKZF2 (Homo sapiens, UniProt Q96SW2+Q9UKS7)
T1 construct: CRISPR/Cas9—mediated insertion of the HiBiT peptide tag (Promega™) to the N-terminus of the IKZF2 gene locus; endogenous in cells; host or cells: MOLT4 cells, with CRISPR/Cas9 knock-in of HiBiT at the endogenous IKZF2 locus
Assay: HiBit-IKZF2 assay (HiBiT-Helios degradation in MOLT4 cells)
Type: cell-based
Conditions: for Dmax: MOLT-4, extent of degradation from highest to lowest concentration, 10 μM to 0.00026 μM, read-out: Dmax; for DC50: concentration at which 50% of HiBiT-Helios degradation was achieved
Procedure, shortened: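 MOLT4 cells carried an endogenous N-terminal HiBiT tag on IKZF2, knocked in by CRISPR. Cells were treated in triplicate at 13 concentrations (10 μM–0.00026 μM), and remaining HiBiT-Helios was read by lytic luminescence at set timepoints. Data were normalized to DMSO to give the 50% degradation concentration, with Dmax taken from the luminescence range.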

T1 sequence (Q9UKS7 whole entry): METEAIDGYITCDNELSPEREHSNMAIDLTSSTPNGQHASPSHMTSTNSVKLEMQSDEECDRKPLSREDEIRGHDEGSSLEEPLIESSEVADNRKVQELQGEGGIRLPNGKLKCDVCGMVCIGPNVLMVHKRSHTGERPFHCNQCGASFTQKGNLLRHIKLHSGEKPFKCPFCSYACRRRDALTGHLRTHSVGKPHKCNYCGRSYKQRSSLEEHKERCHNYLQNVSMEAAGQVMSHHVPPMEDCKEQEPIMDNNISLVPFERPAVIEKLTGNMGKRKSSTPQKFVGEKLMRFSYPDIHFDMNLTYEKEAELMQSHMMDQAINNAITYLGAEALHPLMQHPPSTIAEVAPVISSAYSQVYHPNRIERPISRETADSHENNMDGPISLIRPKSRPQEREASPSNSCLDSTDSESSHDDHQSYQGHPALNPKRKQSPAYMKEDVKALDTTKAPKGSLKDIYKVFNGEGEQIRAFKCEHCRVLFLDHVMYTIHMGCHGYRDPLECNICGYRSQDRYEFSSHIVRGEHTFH
T1 sequence (Q96SW2 whole entry): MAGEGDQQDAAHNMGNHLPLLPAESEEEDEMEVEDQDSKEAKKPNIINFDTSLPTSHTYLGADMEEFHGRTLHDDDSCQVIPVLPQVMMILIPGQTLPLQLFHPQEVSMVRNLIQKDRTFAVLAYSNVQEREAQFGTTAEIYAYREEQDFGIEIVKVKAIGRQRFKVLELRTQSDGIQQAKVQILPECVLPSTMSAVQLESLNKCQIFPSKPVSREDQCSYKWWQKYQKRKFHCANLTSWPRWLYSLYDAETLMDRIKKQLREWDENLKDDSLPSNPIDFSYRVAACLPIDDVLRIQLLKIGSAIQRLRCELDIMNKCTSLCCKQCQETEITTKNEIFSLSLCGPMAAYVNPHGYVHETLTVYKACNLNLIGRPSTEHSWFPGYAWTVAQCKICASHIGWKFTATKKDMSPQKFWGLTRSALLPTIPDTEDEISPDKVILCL
T1 sequence (Q16531 whole entry partner): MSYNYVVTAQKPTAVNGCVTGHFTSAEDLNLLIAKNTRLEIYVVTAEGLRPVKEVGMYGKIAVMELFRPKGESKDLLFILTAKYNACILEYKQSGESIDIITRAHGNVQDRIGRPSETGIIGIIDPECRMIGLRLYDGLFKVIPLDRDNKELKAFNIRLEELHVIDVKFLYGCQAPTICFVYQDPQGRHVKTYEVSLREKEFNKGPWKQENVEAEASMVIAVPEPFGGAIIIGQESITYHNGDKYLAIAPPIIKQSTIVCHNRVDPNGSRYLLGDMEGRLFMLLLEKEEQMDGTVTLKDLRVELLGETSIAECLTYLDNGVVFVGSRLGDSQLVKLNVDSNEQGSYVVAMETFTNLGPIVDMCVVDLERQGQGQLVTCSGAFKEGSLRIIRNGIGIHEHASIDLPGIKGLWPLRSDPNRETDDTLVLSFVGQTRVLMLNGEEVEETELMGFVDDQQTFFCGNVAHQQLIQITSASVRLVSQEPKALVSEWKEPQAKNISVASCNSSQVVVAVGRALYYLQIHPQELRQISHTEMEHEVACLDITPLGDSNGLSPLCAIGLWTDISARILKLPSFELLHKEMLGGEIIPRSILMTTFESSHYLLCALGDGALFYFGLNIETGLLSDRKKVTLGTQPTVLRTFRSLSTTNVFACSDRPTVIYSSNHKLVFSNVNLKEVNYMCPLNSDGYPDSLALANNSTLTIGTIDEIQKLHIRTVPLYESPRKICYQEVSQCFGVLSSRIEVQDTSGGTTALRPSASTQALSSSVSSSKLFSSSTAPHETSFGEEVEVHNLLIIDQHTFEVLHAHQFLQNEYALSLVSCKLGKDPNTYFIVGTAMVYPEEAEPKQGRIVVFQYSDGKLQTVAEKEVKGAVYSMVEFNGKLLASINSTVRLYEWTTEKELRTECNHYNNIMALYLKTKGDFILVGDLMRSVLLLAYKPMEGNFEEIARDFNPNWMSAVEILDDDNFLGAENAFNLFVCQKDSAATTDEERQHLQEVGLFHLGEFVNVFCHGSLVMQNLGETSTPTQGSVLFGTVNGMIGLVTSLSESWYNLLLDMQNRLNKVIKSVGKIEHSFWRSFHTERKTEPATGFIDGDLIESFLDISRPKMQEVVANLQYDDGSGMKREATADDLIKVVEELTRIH

SMILES | Dmax [%] | DC50 [nM]
O=C1CCC(N2Cc3cc(C4(O)CCN(Cc5ccc(C(F)(F)F)cc5)CC4)ccc3C2=O)C(=O)N1 (stereo not drawn) [Compound 251] | > 70 | < 10
O=C1CCC(N2Cc3cc(C4(O)CCN(Cc5ccccc5Oc5ccccc5)CC4)ccc3C2=O)C(=O)N1 (stereo not drawn) [Compound 252] | > 70 | < 10
O=C1CCC(N2Cc3cc(C4(O)CCN(Cc5ccc(Oc6ccccc6)cc5)CC4)ccc3C2=O)C(=O)N1 (stereo not drawn) [Compound 253] | 50 to 70 | < 10
O=C1CCC(N2Cc3cc(C4(O)CCN(Cc5cccc(F)c5Cl)CC4)ccc3C2=O)C(=O)N1 (stereo not drawn) [Compound 254] | > 70 | < 10
O=C1CCC(N2Cc3cc(C4(O)CCN(Cc5ccc(F)c(Cl)c5)CC4)ccc3C2=O)C(=O)N1 (stereo not drawn) [Compound 255] | > 70 | < 10
O=C1CCC(N2Cc3cc(C4(O)CCN(Cc5ccccc5F)CC4)ccc3C2=O)C(=O)N1 (stereo not drawn) [Compound 256] | > 70 | < 10
O=C1CCC(N2Cc3cc(C4(O)CCN(Cc5cccc(F)c5)CC4)ccc3C2=O)C(=O)N1 (stereo not drawn) [Compound 257] | > 70 | < 10
O=C1CCC(N2Cc3cc(C4(O)CCN(Cc5ccc(F)cc5)CC4)ccc3C2=O)C(=O)N1 (stereo not drawn) [Compound 258] | > 70 | < 10
O=C1CCC(N2Cc3cc(C4(O)CCN(Cc5nc6ccccc6s5)CC4)ccc3C2=O)C(=O)N1 (stereo not drawn) [Compound 260] | 50 to 70 | 10 to 30
COc1cccc(CN2CCC(O)(c3ccc4c(c3)CN(C3CCC(=O)NC3=O)C4=O)CC2)c1 (stereo not drawn) [Compound 261] | > 70 | < 10
COc1ccc(CN2CCC(O)(c3ccc4c(c3)CN(C3CCC(=O)NC3=O)C4=O)CC2)cc1 (stereo not drawn) [Compound 262] | 50 to 70 | 10 to 30
COc1ccccc1CN1CCC(O)(c2ccc3c(c2)CN(C2CCC(=O)NC2=O)C3=O)CC1 (stereo not drawn) [Compound 263] | > 70 | < 10
Cc1cccc(CN2CCC(O)(c3ccc4c(c3)CN(C3CCC(=O)NC3=O)C4=O)CC2)c1 (stereo not drawn) [Compound 264] | > 70 | < 10
Cc1ccccc1CN1CCC(O)(c2ccc3c(c2)CN(C2CCC(=O)NC2=O)C3=O)CC1 (stereo not drawn) [Compound 265] | > 70 | < 10
Cc1ccc(CN2CCC(O)(c3ccc4c(c3)CN(C3CCC(=O)NC3=O)C4=O)CC2)cc1 (stereo not drawn) [Compound 266] | > 70 | < 10
O=C1CCC(N2Cc3cc(C4(O)CCN(Cc5ccccc5Cl)CC4)ccc3C2=O)C(=O)N1 (stereo not drawn) [Compound 267] | > 70 | < 10
O=C1CCC(N2Cc3cc(C4(O)CCN(Cc5ccc(Cl)cc5)CC4)ccc3C2=O)C(=O)N1 (stereo not drawn) [Compound 268] | > 70 | < 10
CC(c1ccccc1)N1CCC(O)(c2ccc3c(c2)CN(C2CCC(=O)NC2=O)C3=O)CC1 (stereo not drawn) [Compound 269] | > 70 | < 10
O=C1CCC(N2Cc3cc(C4(O)CCN(Cc5ccc(C6CC6)cc5)CC4)ccc3C2=O)C(=O)N1 (stereo not drawn) [Compound 270] | > 70 | < 10
O=C1CCC(N2Cc3cc(C4(O)CCN(Cc5ccc6c(c5)OC(F)(F)O6)CC4)ccc3C2=O)C(=O)N1 (stereo not drawn) [Compound 271] | > 70 | < 10
O=C1CCC(N2Cc3cc(C4(O)CCN(Cc5ccc6c(c5)OCCCO6)CC4)ccc3C2=O)C(=O)N1 (stereo not drawn) [Compound 272] | > 70 | < 10
O=C1CCC(N2Cc3cc(C4(O)CCN(Cc5cccc(-c6ccccc6)c5)CC4)ccc3C2=O)C(=O)N1 (stereo not drawn) [Compound 273] | > 70 | < 10
O=C1CCC(N2Cc3cc(C4(O)CCN(Cc5ccccc5-c5ccccc5)CC4)ccc3C2=O)C(=O)N1 (stereo not drawn) [Compound 274] | 50 to 70 | < 10
O=C1CCC(N2Cc3cc(C4(O)CCN(Cc5ccc6c(c5)CCCO6)CC4)ccc3C2=O)C(=O)N1 (stereo not drawn) [Compound 275] | > 70 | < 10
O=C1CCC(N2Cc3cc(C4(O)CCN(Cc5ccccc5OCc5ccccc5)CC4)ccc3C2=O)C(=O)N1 (stereo not drawn) [Compound 276] | 50 to 70 | < 10
O=C1CCC(N2Cc3cc(C4(O)CCN(Cc5cccc(OCc6ccccc6)c5)CC4)ccc3C2=O)C(=O)N1 (stereo not drawn) [Compound 277] | > 70 | < 10
Cc1ccc(C)n1-c1ccc(CN2CCC(O)(c3ccc4c(c3)CN(C3CCC(=O)NC3=O)C4=O)CC2)cc1 (stereo not drawn) [Compound 278] | > 70 | 10 to 30
O=C1CCC(N2Cc3cc(C4(O)CCN(Cc5ccc6ncccc6c5)CC4)ccc3C2=O)C(=O)N1 (stereo not drawn) [Compound 279] | > 70 | < 10
O=C1CCC(N2Cc3cc(C4(O)CCN(Cc5cccc6cccnc56)CC4)ccc3C2=O)C(=O)N1 (stereo not drawn) [Compound 280] | > 70 | 10 to 30
O=C1CCC(N2Cc3cc(C4(O)CCN(Cc5cccc(-c6nccs6)c5)CC4)ccc3C2=O)C(=O)N1 (stereo not drawn) [Compound 281] | > 70 | < 10
